pIC50: −log10 of the molar value.
Experiments:
[1] = molecular target: T1, mouse constitutive androstane receptor (mCAR, NR1I3) (Mus musculus, UniProt O35627); test: Inhibition of mouse constitutive androstane receptor (mCAR) activity at 10 uM was determined as percent remaining activity; conditions: read-out: Remaining activity
T1 sequence (O35627 whole entry): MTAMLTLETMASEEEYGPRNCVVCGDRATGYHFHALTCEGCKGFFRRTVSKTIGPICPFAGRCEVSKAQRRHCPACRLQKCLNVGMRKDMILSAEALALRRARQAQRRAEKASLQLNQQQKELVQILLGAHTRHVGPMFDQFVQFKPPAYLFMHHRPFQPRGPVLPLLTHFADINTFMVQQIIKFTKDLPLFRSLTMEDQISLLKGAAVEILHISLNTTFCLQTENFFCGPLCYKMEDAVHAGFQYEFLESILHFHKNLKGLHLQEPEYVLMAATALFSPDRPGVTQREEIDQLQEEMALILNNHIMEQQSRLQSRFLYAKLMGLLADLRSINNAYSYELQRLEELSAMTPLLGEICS

[2] = molecular target: T2, Nuclear receptor subfamily 1 group I member 3 (Mus musculus, UniProt O35627); test: Inhibitory concentration against mouse constitutive androstane receptor (mCAR) activity was determined as pIC50
T2 sequence (O35627 whole entry): T1 sequence (O35627 whole entry)

[3] = molecular target: T2, Nuclear receptor subfamily 1 group I member 3; test: Inhibitory concentration against mammalian m-constitutive androstane receptor (mCAR) activity

Compound | activity at 10 µM [1] | pIC50 [2] | pIC50 [3]
CC12CCC3C(CCC4=CC(=O)[C@H](O)CC43C)C1CCC2=O (stereo partly specified) | 41% | – | –
CC12C=CCC1C1CCC3=CC(=O)CCC3(C)C1CC2 (stereo unspecified) | 7% | 6.10 | –
CC12CCC3C(C1CCC2=O)[C@H](O)CC1=CC(=O)CCC13C (stereo partly specified) | 97% | – | –
CC12CCC3C(CC[C@H]4CC=CCC34C)C1CCC2=O (stereo partly specified) | 42% | – | –
CC12C=CCC1C1CC[C@H]3C[C@H](O)CCC3(C)C1CC2 (stereo partly specified) | 4% | – | –
CC12C=CCC1C1CC[C@H]3CC(=O)CCC3(C)C1CC2 (stereo partly specified) | 5% | – | –
CC12CCC3C(C[C@@H](O)C4=CC(=O)CCC43C)C1CCC2=O (stereo partly specified) | 89% | – | –
CC12CCC3C(CCC4=C[C@H](O)CCC43C)C1CCC2=O (stereo partly specified) | 66% | – | –
CC12CCC(=O)C=C1CCC1C2CCC2(C)C1CC[C@@H]2C(=O)O (stereo partly specified) | 81% | 4.40 | –
CC12CCC3C(CCC4=CC(=O)CCC43C)C1C[C@@H](O)C2=O (stereo partly specified) | 62% | – | –
C[C@]12CCC(=O)C=C1CC[C@@H]1[C@@H]2[C@@H](O)C[C@]2(C)C(=O)CC[C@@H]12 | 83% | – | –
C[C@@]12CCC[C@H]1[C@@H]1CC[C@H]3C[C@H](O)CC[C@]3(C)[C@H]1CC2 | 4% | – | –
C[C@@]12CCC[C@H]1[C@@H]1CC[C@@H]3C[C@H](O)CC[C@]3(C)[C@H]1CC2 | 4% | – | –
C[C@@]12CCC[C@H]1[C@@H]1CCc3cc(O)ccc3[C@H]1CC2 | 56% | – | –
CC12CC[C@H]3[C@@H](CC[C@H]4CC(=O)CCC43C)[C@@H]1CCC2=O (stereo partly specified) | 34% | 5.30 | –
CC12CC[C@@H]3C4CC[C@@H](O)C[C@@H]4CC[C@H]3[C@@H]1CCC2=O (stereo partly specified) | 91% | – | –
CC12CC[C@@H]3C4CCC(=O)C[C@@H]4CC[C@H]3[C@@H]1CCC2=O (stereo partly specified) | 80% | – | –
CC12CC[C@H]3[C@@H](CC[C@@H]4CCCCC43C)[C@@H]1CCC2=O (stereo partly specified) | 45% | – | –
CCC1CC[C@H]2[C@@H]3CC[C@H]4CC(=O)CCC4(C)[C@H]3CCC12C (stereo partly specified) | 52% | – | –
CC12CCC(=O)C[C@@H]1CC[C@@H]1[C@@H]2CCC2(C)[C@@H](O)CC[C@@H]12 (stereo partly specified) | 53% | – | –
CC12CCC[C@H]1[C@@H]1CC[C@H]3CC(=O)CCC3(C)[C@H]1CC2 (stereo partly specified) | 12% | – | –

Compound | activity at 10 µM [1] | pIC50 [2] | pIC50 [3]
CC12CC[C@@H](O)C[C@@H]1CC[C@@H]1[C@@H]2CCC2(C)[C@@H](O)CC[C@@H]12 (stereo partly specified) | 63% | – | –
CC12CCC3C(CC[C@H]4CC(=O)C=CC34C)C1CCC2=O (stereo partly specified) | 90% | – | –
CC12CCC3C(C[C@H](O)C4=CC(=O)CCC43C)C1CCC2=O (stereo partly specified) | 81% | – | –
CC12C=CCC1C1CC[C@H]3C[C@@H](O)CCC3(C)C1CC2 (stereo partly specified) | 28% | – | –
CC(=O)[C@H]1CC[C@H]2[C@@H]3CC[C@H]4CC(=O)CC[C@]4(C)[C@H]3CC[C@]12C | 73% | – | –
CC(=O)[C@H]1CC[C@H]2[C@@H]3CC[C@@H]4CC(=O)CC[C@]4(C)[C@H]3CC[C@]12C | 20% | – | –
C[C@]12CCC(=O)C=C1CCC1[C@@H]2C(=O)C[C@@]2(C)[C@H]1CC[C@]2(O)C(=O)CO (single isomer, unassigned) [CORTISONE] | 80% | – | –
C[C@]12CCC(=O)C=C1CCC1[C@@H]2[C@@H](O)C[C@@]2(C)[C@H]1CC[C@]2(O)C(=O)CO (single isomer, unassigned) [HYDROCORTISONE] | 68% | – | –
C[C@]12CCC(=O)C=C1CC[C@@H]1[C@@H]2CC[C@]2(C)C(=O)CC[C@@H]12 [ANDROSTENEDIONE] | 56% | – | –
C[C@]12C=CC(=O)C=C1CC[C@@H]1[C@@H]2CC[C@]2(C)C(=O)CC[C@@H]12 [ANDROSTENEDONE] | 89% | – | –
C[C@]12CC[C@@H](O)C[C@@H]1CC[C@@H]1[C@@H]2CC[C@]2(C)C=CC[C@@H]12 [ANDROSTENOL] | – | – | 6.60
CC(=O)[C@H]1CC[C@H]2[C@@H]3CC[C@H]4C[C@H](O)CC[C@]4(C)[C@H]3CC[C@]12C [BREXANOLONE] | 19% | – | –
C[C@]12C[C@H](O)[C@H]3[C@@H](CCC4=CC(=O)CC[C@@]43C)[C@@H]1CC[C@@H]2C(=O)CO [CORTICOSTERONE] | 80% | – | –
C[C@]12CC[C@H]3[C@@H](CCC4=CC(=O)CC[C@@]43C)[C@@H]1CC[C@@H]2C(=O)CO [DESOXYCORTICOSTERONE] | 58% | – | –
C[C@@H]1C[C@H]2[C@@H]3CCC4=CC(=O)C=C[C@]4(C)[C@@]3(F)[C@@H](O)C[C@]2(C)[C@@]1(O)C(=O)CO [DEXAMETHASONE] | 75% | – | –
C[C@]12CC[C@H]3[C@@H](CCC4=CC(=O)CC[C@@]43C)[C@@H]1CC[C@H]2O [EPITESTOSTERONE] | 73% | – | –
C[C@]12CCC(=O)C(O)=C1CC[C@@H]1[C@@H]2CC[C@]2(C)C(=O)CC[C@@H]12 [FORMESTANE] | 53% | – | –
C[C@]12CC[C@H](O)CC1=CC[C@@H]1[C@@H]2CC[C@]2(C)C(=O)CC[C@@H]12 [PRASTERONE] | 71% | – | –
CC(=O)[C@H]1CC[C@H]2[C@@H]3CC=C4C[C@@H](O)CC[C@]4(C)[C@H]3CC[C@]12C [PREGNENOLONE] | 95% | – | –
C[C@]12CCC(=O)C[C@@H]1CC[C@@H]1[C@@H]2CC[C@]2(C)[C@@H](O)CC[C@@H]12 [STANOLONE] | 69% | – | –
C[C@]12CC[C@H]3[C@@H](CCC4=CC(=O)CC[C@@]43C)[C@@H]1CC[C@@H]2O [TESTOSTERONE] | 78% | – | 4.52

— ChEMBL document CHEMBL1145136, “Molecular determinants of steroid inhibition for the mouse constitutive androstane receptor” (J Med Chem, 2003)
